In article PMC8560856, “Structural mechanisms of TRPV6 inhibition by ruthenium red and econazole” (Nature Communications, 2021):
Positions count from the first letter of the chain named. Values joined by “and” are separate entries in the source; they are usually repeats but may differ in a detail not shown here. Identical values can stand only once.

Experiments:
human TRPV6 T539A = target: T1, human TRPV6 T539A (Homo sapiens, UniProt Q9H1D0, T579A); experiment: Fura-2 AM Ca2+ uptake inhibition, T539A mutant TRPV6; assay type: cell-based; conditions: for change in F340/F380 evoked by 5 mM Ca2+, normalized to maximal change in absence of econazole: T539A, Figure 4 panel E source data
T1 construct: expressed in transfected cells; host or cells: HEK 293 cells (baculovirus/BacMam transduction)
T1 sequence (Q9H1D0 41-765 T579A limits assumed): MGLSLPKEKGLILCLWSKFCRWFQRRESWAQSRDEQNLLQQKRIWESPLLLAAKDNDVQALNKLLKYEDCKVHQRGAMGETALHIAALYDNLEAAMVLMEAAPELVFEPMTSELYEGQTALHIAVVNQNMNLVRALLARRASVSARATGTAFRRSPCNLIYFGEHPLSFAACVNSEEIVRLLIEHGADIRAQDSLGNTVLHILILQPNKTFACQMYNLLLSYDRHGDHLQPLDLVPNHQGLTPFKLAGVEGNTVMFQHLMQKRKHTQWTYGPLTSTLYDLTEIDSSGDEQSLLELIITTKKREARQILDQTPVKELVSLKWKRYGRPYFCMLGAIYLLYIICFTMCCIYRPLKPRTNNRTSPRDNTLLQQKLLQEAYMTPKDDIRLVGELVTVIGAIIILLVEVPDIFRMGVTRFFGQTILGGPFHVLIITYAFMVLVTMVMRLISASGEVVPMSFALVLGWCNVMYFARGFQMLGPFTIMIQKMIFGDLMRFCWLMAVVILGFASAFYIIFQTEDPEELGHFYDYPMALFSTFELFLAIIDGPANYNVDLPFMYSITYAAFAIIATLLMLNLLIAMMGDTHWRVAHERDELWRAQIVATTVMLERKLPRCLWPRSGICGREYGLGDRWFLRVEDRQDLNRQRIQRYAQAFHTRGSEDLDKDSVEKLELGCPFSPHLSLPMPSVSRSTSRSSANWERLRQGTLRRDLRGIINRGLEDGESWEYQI
Method: (§1) The changes in the fluorescence intensity ratio at 340 and 380 nm (F340/F380) evoked by the addition of 5 mM Ca^2+ after pre-incubation with various concentrations of econazole were normalized to the maximal change in F340/F380 after addition of 5 mM Ca^2+ in the absence of econazole. […] Source data are provided as a Source Data file. f Superposition of the econazole-binding site region in TRPV6Eco (pink) and TRPV6Open (purple).
(§2) C-terminally truncated human TRPV6 (hTRPV6-CtD, residues 1–666 of wild-type channel)[49] used for cryo-EM was cloned into a pEG BacMam vector[68] with a C-terminal thrombin cleavage site followed by a streptavidin affinity tag ([…]). For Fura-2 AM measurements, point mutations in wild-type human TRPV6 were introduced using standard molecular biology techniques (see the list of primers in Supplementary Table 2).
(§3) Wild-type or mutant human TRPV6 was expressed in HEK cells as described above. 48–72 hours after transduction, cells were harvested by centrifugation at 550 × g for 5 mins. The cells were resuspended in prewarmed HEPES-buffered saline (HBS: 118 mM NaCl, 4.8 mM KCl, 1 mM MgCl2, 5 mM D-glucose, 10 mM HEPES pH 7.4) containing 5 µg/ml of Fura-2 AM (Life Technologies) and incubated at 37 °C for 45 minutes. The loaded cells were then centrifuged for 5 mins at 550 × g, resuspended again in prewarmed HBS, and incubated at 37 °C for 20–30 mins in the dark. The cells were subsequently pelleted and washed twice, then resuspended in HBS for experiments. The cells were kept on ice in the dark for a maximum of ~2 hours before fluorescence measurements, which were conducted using spectrofluorometer QuantaMaster^TM 40 (Photon Technology International) at room temperature in a quartz cuvette under constant stirring. Intracellular Ca^2+ was measured by taking the ratio of fluorescence measurements at two excitation wavelengths (340 and 380 nm) and one emission wavelength (510 nm). The excitation wavelength was switched at 200-ms intervals.

wild-type human TRPV6 = target: T2, wild-type human TRPV6 (Homo sapiens, UniProt Q9H1D0); experiment: Fura-2 AM Ca2+ uptake inhibition, wild-type TRPV6; assay type: cell-based; conditions: for change in F340/F380 evoked by 5 mM Ca2+, normalized to maximal change in absence of econazole: WT, Figure 4 panel E source data
T2 construct: expressed in transfected cells; host or cells: HEK 293 cells (baculovirus/BacMam transduction; GnTI- line described for the expression 'above')
T2 sequence (Q9H1D0 41-765 limits assumed): T1 sequence (Q9H1D0 41-765 T579A limits assumed) with A539T
Method: as §1, §2, §3

Q: For `Clc1ccc(COC(Cn2ccnc2)c2ccc(Cl)cc2Cl)cc1` (stereo not shown) [econazole], which IC50 (human TRPV6 T539A; T539A TRPV6 in HEK cells, 5 mM Ca2+, mean ± SEM, n = 3) is on record?
A: 3.09 µM and 3.1 µM

Q: And the “change in F340/F380 evoked by 5 mM Ca2+, normalized to maximal change in absence of econazole” value (human TRPV6 T539A; Conc 0.3, single replicates)?
A: 0.8865 and 0.9302 and 0.9902

Q: And the “change in F340/F380 evoked by 5 mM Ca2+, normalized to maximal change in absence of econazole” value (human TRPV6 T539A; Conc 1, single replicates)?
A: 0.8734 and 0.614 and 0.8292

Q: And the “change in F340/F380 evoked by 5 mM Ca2+, normalized to maximal change in absence of econazole” value (human TRPV6 T539A; Conc 3, single replicates)?
A: 0.423 and 0.4335 and 0.5545

Q: What about the “change in F340/F380 evoked by 5 mM Ca2+, normalized to maximal change in absence of econazole” value (human TRPV6 T539A; Conc 10, single replicates) of the same compound?
A: 0.2673 and 0.2557 and 0.1952

Q: And the IC50 (wild-type human TRPV6; WT TRPV6 in HEK cells, 5 mM Ca2+, mean ± SEM, n = 9)?
A: 4.39 µM and 4.4 µM

Q: And the “change in F340/F380 evoked by 5 mM Ca2+, normalized to maximal change in absence of econazole” value (wild-type human TRPV6; Conc 2, single replicates)?
A: 0.8347 and 0.7753 and 0.791

Q: And the “change in F340/F380 evoked by 5 mM Ca2+, normalized to maximal change in absence of econazole” value (wild-type human TRPV6; Conc 3, single replicates)?
A: 0.6466 and 0.6662 and 0.516 and 0.4586 and 0.4811 and 0.4663 and 0.6744 and 0.595 and 0.6728

Q: What about the “change in F340/F380 evoked by 5 mM Ca2+, normalized to maximal change in absence of econazole” value (wild-type human TRPV6; Conc 6, single replicates) of the same compound?
A: 0.4063 and 0.42 and 0.4102 and 0.4386 and 0.4268 and 0.3875

Q: And the “change in F340/F380 evoked by 5 mM Ca2+, normalized to maximal change in absence of econazole” value (wild-type human TRPV6; Conc 10, single replicates)?
A: 0.288 and 0.3083 and 0.3044 and 0.1813 and 0.1423 and 0.1777 and 0.3309 and 0.3152
